Assays:
[1] = tested on: microtubule-associated protein2 (MAP2); assay: Binding (affinity) by displacement of PREG-3H; conditions: index of binding
[2] = target: purified tubulin and MAP2 (Homo sapiens, UniProt P11137); assay: Microtubule polymerization activity (optical density at 345 nm); assay type: biochemical; conditions: increase in optical density at 345 nm, 37 °C, in the presence of GTP
Protocol: Activity is measured by the increase in optical density at 345 nm of a mixture of purified tubulin and MAP2, incubated at 37 °C in the presence of GTP.

PC12 cells = assay: Stimulation of neuritic sprouting; assay type: cell-based; conditions: PC12 cells differentiated with NGF (10 ng/ml), steroid 30 µM, 3 days; relative to PREG
Protocol: Stimulation of neuritic sprouting is conducted on PC12 cells differentiated in the presence of NGF (10 ng/ml) and the steroid being tested (30 µM) for 3 days. For each condition, the average length of the longest 200 neurites […] is measured simultaneously for 3 cultures.

Wistar Kyoto (WKY) rats [3] = assay: Locomotor activity in the open-field arena, WKY rats; assay type: in vivo, rat; conditions: acute, fluoxetine 10 mg/kg i.p., ketamine 30 mg/kg i.p., 3 min, Fig. 5A
Protocol: (§1) After a 6-day period of acclimatization, all experimental groups received daily successive subcutaneous (250 µl per rat) and intraperitoneal (1 ml/kg) injections. WI rats received injection of vehicle (sesame oil + saline) while WKY rats were randomly assigned to […], as follow: KWY rats receiving only vehicle (sesame oil + saline) and WKY rats treated with MAP4343 (10 mg/kg, s.c.; rats received in parallel i.p. injections of saline), fluoxetine (10 mg/kg i.p., rats received in parallel s.c. injections of sesame oil) or ketamine (30 mg/kg, i.p.; rats received in parallel s.c. injections of sesame oil) (see Figure 3).
(§2) After, a 6-day period of acclimatization, the acute phase of treatment started for 4 days during behavioral tests were performed (Figure 3). All animals were injected 1h30 before the starting of behavioral test.
(§3) The animals were individually placed in the open field arena (OFA) (70 x 100 x 70 cm), with a central square (35 x 50 cm), located in a 50 lux illuminated room and videotaped during 3 min using a computerized system (VideoTrack V2.5, ViewPoint, Lyon, France).
(§4) OFA allows firstly the evaluation of total locomotor activity (LMA) thereby measuring the total distance travelled in the arena (in cm). Secondly, measurements of the activity in the center of the arena like (i) the number of entries in the center of arena and (ii) the total time spent in the center of arena (in sec) provide cues of anxiety-like behavior (Prut and Belzung, 2003). All these behavioral parameters were instantaneously measured automatically with the VideoTrack V2.5 software from the videos.

Wistar Kyoto (WKY) rats [4] = assay: Anxious-like behavior: activity in the central square of the open-field arena, WKY rats; assay type: in vivo, rat; conditions: acute, MAP4343 10 mg/kg s.c., fluoxetine 10 mg/kg i.p., ketamine 30 mg/kg i.p.
Protocol: as §1, §2, §3, §4

Wistar Kyoto (WKY) rats [5] = assay: Elevated-plus maze (EPM), WKY rats; assay type: in vivo, rat; conditions: acute, MAP4343 10 mg/kg s.c., fluoxetine 10 mg/kg, ketamine 30 mg/kg i.p., Fig. 5D
Protocol: as §1, §2
We used the elevated-plus maze (EPM) as an assay of anxiety-related behavior in rodents (Walf and Frye, 2007). Rats were initially placed in the center of the plus-maze, consisting of two open arms (50 x 10 cm) and two closed arms (50 x 10 cm enclosed by 40 cm walls), in a 50 lux illuminated room and videotaped during 5 min using a computerized system (VideoTrack V2.5, ViewPoint, Lyon, France). The time spent in the open versus closed arms was blindly measured by two independent experimenters from the recorded video, and the open arm-index was calculated as follow: time in the open arms (sec) / [time in open arms (sec) + time in closed arms (sec)].

[6] = target: T1, human progesterone receptor(PR) (Homo sapiens, UniProt P06401); assay: Test of progesterone receptor agonist activity (MMTV-luciferase transactivation in transfected HEK293T cells); assay type: cell-based; conditions: 24 hours, increasing amounts, Figure 1
T1 construct: expressed in transfected cells; host or cells: HEK293T
T1 sequence (P06401 1-933): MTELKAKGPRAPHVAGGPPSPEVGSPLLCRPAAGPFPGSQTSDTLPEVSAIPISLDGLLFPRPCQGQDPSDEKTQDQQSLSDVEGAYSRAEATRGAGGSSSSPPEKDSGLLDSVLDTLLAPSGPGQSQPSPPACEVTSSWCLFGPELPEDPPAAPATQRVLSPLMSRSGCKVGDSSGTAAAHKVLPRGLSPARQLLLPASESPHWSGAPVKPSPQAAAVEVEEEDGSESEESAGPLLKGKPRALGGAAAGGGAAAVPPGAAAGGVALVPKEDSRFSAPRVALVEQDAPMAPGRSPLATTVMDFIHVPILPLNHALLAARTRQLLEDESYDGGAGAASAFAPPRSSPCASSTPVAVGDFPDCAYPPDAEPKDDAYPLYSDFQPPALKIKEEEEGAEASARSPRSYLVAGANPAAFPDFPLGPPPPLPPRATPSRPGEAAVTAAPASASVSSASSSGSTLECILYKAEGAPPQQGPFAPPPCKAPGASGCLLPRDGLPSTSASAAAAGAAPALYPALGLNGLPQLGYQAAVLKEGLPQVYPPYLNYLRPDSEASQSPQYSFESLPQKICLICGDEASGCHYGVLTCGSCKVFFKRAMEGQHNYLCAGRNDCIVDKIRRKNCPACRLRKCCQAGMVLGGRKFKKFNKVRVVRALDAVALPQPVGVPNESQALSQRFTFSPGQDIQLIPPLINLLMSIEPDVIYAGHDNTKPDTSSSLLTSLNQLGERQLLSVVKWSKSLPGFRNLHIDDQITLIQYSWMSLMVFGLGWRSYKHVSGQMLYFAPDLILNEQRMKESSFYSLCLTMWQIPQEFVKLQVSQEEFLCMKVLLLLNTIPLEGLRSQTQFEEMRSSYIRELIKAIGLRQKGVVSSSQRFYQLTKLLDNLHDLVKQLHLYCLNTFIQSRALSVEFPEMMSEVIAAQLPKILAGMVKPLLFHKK
Protocol: The main experimental setting used is the following: HEK293T cells were transiently transfected, using calcium phosphate precipitation technology, with expression vectors pSG5hPR (which permits expression of human progesterone receptor(PR)), pFC31-luc (contains the luciferase gene under the control of the MMTV promoter, which is in turn activated by binding of a progestin to progesterone receptor) and pcbetagal (which permits expression of betagalactosidase), and cultured during 24 hours with increasing amounts of various compositions: • 1. […] Test of progesterone receptor […] activity: transfected cells were cultured with progesterone (1 nM) and increasing amounts of RU486 (a well-known progesterone receptor antagonist) or 3-methoxy-pregnenolone. With this setting, a compound with progesterone receptor antagonist activity competes with progesterone for the occupation of progesterone receptor and results in a progressive loss of transactivation activity when the amount of this compound is increased compared to progesterone.

purified tubulin and MAP2, sequence (P11137 whole entry): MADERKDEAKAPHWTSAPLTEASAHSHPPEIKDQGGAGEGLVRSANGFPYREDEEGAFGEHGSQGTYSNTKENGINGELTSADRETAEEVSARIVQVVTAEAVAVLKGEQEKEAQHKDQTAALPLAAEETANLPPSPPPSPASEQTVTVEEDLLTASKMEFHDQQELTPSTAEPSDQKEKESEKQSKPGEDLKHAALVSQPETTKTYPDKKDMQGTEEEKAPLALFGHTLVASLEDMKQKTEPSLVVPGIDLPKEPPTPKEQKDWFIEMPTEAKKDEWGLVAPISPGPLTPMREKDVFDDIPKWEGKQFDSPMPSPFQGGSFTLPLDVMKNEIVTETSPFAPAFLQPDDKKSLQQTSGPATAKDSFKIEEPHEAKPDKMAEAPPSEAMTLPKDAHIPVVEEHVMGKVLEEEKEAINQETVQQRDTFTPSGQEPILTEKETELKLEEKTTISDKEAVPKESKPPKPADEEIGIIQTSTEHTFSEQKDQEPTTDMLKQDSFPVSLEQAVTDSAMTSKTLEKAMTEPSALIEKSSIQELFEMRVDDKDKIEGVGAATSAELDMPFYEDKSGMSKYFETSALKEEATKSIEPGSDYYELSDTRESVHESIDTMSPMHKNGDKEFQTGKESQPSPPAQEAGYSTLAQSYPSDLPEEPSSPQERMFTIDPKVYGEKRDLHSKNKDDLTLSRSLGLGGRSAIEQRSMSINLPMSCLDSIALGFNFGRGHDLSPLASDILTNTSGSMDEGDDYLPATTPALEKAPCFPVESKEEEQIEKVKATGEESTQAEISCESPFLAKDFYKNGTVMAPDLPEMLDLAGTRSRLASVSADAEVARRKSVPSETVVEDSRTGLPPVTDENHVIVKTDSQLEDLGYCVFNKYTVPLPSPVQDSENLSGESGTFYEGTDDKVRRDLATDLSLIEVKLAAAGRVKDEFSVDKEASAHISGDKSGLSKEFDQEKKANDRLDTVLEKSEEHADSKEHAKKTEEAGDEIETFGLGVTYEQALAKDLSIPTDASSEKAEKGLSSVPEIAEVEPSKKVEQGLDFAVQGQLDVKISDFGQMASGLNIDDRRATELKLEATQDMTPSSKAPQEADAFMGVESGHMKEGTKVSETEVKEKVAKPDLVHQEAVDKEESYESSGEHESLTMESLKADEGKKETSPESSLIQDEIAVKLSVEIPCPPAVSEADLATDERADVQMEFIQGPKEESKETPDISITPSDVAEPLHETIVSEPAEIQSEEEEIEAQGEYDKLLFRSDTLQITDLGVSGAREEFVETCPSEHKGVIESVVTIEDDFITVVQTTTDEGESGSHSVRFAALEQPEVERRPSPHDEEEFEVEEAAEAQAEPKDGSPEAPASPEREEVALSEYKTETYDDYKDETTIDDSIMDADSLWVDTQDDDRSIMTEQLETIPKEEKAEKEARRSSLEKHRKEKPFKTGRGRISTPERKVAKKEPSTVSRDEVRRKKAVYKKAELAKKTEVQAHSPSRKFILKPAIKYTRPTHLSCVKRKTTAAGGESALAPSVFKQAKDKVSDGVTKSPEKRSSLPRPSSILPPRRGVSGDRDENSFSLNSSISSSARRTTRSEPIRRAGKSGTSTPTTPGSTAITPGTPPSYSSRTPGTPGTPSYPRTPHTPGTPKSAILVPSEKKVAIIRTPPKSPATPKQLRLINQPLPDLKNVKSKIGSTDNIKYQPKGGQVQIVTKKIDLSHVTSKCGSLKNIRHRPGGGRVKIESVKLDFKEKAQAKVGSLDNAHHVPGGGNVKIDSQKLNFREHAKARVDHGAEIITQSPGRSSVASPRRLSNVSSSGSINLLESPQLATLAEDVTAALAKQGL

| Compound | Affinity [1] | Activity [2] | Neuritic sprouting (PC12 cells) | also measured |
| --- | --- | --- | --- | --- |
| CC(=O)[C@@]12O[C@@H]1C[C@H]1[C@@H]3CC=C4C[C@@H](O)CC[C@]4(C)[C@H]3CC[C@@]12C [PREG-16a,17a-epoxy] | 41% of PREG | 54% of PREG | + (stimulation is lower than) |  |
| CC(=O)[C@H]1[C@H](C)C[C@H]2[C@@H]3CC[C@H]4C[C@@H](O)CC[C@]4(C)[C@H]3CC[C@@]21C [3β-hydroxy-5a-pregnane-20-one-16a-methyl] | 57% of PREG | 53% of PREG |  |  |
| CC(=O)[C@H]1[C@H](C)C[C@H]2[C@@H]3CC=C4C[C@@H](O)CC[C@]4(C)[C@H]3CC[C@@]21C [PREG-16a-methyl] | 80% of PREG | 70% of PREG | ++ (equal to) |  |
| CC(=O)O[C@H](C)[C@H]1CC[C@H]2[C@@H]3CC=C4C[C@@H](O)CC[C@]4(C)[C@H]3CC[C@]12C [Pregna-5-ene-3β,20β-diol-20-acetate] | 60% of PREG | 108% of PREG | ++ (equal to) |  |
| CC(=O)[C@H]1CC[C@H]2[C@@H]3CC=C4C[C@@H](O)CC[C@]4(C)[C@H]3CC[C@]12C [Pregnenolone (PREG), 3β-hydroxypregn-5α-en-20α-one, reference compound] | 100% of PREG | 100% of PREG | ++ (equal to) |  |
| CNC1(c2ccccc2Cl)CCCCC1=O (stereo not shown) [ketamine] |  |  |  | locomotor activity (total distance travelled in the open-field arena), change as compared to WKY receiving vehicle (Wistar Kyoto (WKY) rats [3]; MAP4343 10 mg/kg s.c.): no significant change; locomotor activity (total distance travelled in the open-field arena), change as compared to MAP4343-treated WKY (Wistar Kyoto (WKY) rats [3]): no significant change; number of entries in the central square of OFA, change as compared to WKY receiving only vehicle (Wistar Kyoto (WKY) rats [4]; Fig. 5B): failed to significantly modify; time spent in the center of open-field, change as compared to WKY receiving vehicle (Wistar Kyoto (WKY) rats [4]; Fig. 5C): did not induce any significant change; open-arm (OA) index, change when compared to WKY receiving vehicle alone (Wistar Kyoto (WKY) rats [5]): -29% |
| CC(=O)[C@H]1CC[C@H]2[C@@H]3CCC4=CC(=O)CC[C@]4(C)[C@H]3CC[C@]12C [progesterone, reference compound] |  |  |  | progesterone receptor agonist activity (transactivation activity leading to the expression of luciferase) [6]: permits a transactivation activity |
| CC(=O)[C@H]1[C@@H](C)C[C@H]2[C@@H]3CC=C4C[C@@H](O)CC[C@]4(C)[C@H]3CC[C@@]21C [PREG-168-methyl] | 63% of PREG | 67% of PREG |  |  |
| CO[C@H]1CC[C@@]2(C)[C@@H](CC[C@@H]3[C@@H]2CC[C@]2(C)[C@@H](C(C)=O)CC[C@@H]32)C1 (stereo in doubt) [3β-methoxy-5a-pregnane-20-one] | 87% of PREG | 10% of PREG | +++ |  |
| CO[C@H]1CC[C@@]2(C)C(=CC[C@H]3C4=CC[C@H](C(C)=O)[C@@]4(C)CC[C@@H]32)C1 [3β-methoxy-pregna-5,14-diene-20-one] | 102% of PREG | 50% of PREG | + (stimulation is lower than) |  |
| CO[C@H]1CC[C@@]2(C)[C@@H](CC[C@@H]3[C@@H]2CC[C@]2(C)[C@@H]([C@@H](C)O)CC[C@@H]32)C1 [3β-methoxy-5a-pregnane-20β-ol] | 65% of PREG | 65% of PREG | ++ (equal to) |  |
| CO[C@H]1CC[C@@]2(C)C(=CCC3C2CC[C@@]2(C)C3CC[C@@]2(C(C)=O)C(Cl)Cl)C1 (stereo partly drawn) [3β-methoxy-pregna-5-ene-20-one-17a-dichloromethyl] | 53% of PREG | 113% of PREG | +++ |  |
| CC(=O)[C@@]12C[C@@H]1C[C@H]1[C@@H]3CC=C4C[C@@H](O)CC[C@]4(C)[C@H]3CC[C@@]12C [PREG-16a,17a-methylene] | 62% of PREG | 49% of PREG | + (stimulation is lower than) |  |

From patent EP3436024B1, “3-BETA-METHOXY-PREG FOR USE IN THE TREATMENT OF TREATMENT RESISTANT DEPRESSION” (Mapreg, priority 2016, dated 2017)
